# Data: BindingDB's records for doi:10.1021/acs.jnatprod.5b00104 (Peking Union Medical College, 2015)
# Molecular target: T1, X-box-binding protein 1 (Rattus norvegicus, UniProt Q9R1S4)
# T1 sequence (Q9R1S4 whole entry): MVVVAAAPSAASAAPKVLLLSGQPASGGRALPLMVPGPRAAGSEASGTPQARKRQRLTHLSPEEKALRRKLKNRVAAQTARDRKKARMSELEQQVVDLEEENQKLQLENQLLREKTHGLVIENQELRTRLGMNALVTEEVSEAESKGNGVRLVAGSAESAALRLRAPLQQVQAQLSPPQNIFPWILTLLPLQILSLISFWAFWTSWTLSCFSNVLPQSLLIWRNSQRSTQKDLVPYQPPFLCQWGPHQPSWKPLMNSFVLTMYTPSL
# Test: ChEBML_1526682
# Source text: Transactivation of XBP1 in rat IEC-6 cells after 48 hrs by dual luciferase reporter gene assay
row,Structure (SMILES),EC50 [nM]
1,CC(C)[C@@]12CC[C@@](C)(O1)[C@H](O)CC/C(C=O)=C/CC[C@@]1(C)O[C@@H]1C2,1140
2,C/C1=C/C[C@@H](O)[C@@]2(C)CC[C@@](C(C)C)(C[C@@H](O)[C@]3(C)CC[C@H]1O3)O2,340
3,C/C1=C\CC[C@@]2(C)O[C@@H]2C[C@]2(C(C)C)CC[C@@](C)(O2)[C@H](O)CC1=O,420
4,C/C1=C\[C@@H](O)C[C@@]2(C)O[C@@H]2C[C@]2(C(C)C)CC[C@@](C)(O2)[C@H](O)CC1=O,880
